Bridge positions count the residues as written; N and C are the ends. Square brackets hold non-standard residues; d marks the D form. Peptide text beside a SMILES is read from it. * marks the point of attachment. ξ: configuration not given here. Phe(4-CONH2) = NC(=O)c1ccc(C[C@H](N)C(=O)O)cc1; Bip = N[C@@H](Cc1ccc(-c2ccccc2)cc1)C(=O)O; Phe(4-NH2) = Nc1ccc(C[C@H](N)C(=O)O)cc1; Phe(3-Me) = Cc1cccc(C[C@H](N)C(=O)O)c1; hArg = N=C(N)NCCCC[C@H](N)C(=O)O; Cha = N[C@@H](CC1CCCCC1)C(=O)O; Cit = NC(=O)NCCC[C@H](N)C(=O)O; aThr = C[C@H](O)[C@H](N)C(=O)O; Thr(3ξ) = CC(O)[C@H](N)C(=O)O; NMeNle = CCCC[C@H](NC)C(=O)O; Dap(Me) = CNC[C@H](N)C(=O)O; 12Ado = NCCCCCCCCCCCC(=O)O; Carboxymethyl = O=C(O)C*; Orn = NCCC[C@H](N)C(=O)O; Aun = NCCCCCCCCCCC(=O)O; Dab = NCC[C@H](N)C(=O)O; Dap = NC[C@H](N)C(=O)O; Piv = CC(C)(C)C(=O)*

T1 sequence (Q15116 25-288): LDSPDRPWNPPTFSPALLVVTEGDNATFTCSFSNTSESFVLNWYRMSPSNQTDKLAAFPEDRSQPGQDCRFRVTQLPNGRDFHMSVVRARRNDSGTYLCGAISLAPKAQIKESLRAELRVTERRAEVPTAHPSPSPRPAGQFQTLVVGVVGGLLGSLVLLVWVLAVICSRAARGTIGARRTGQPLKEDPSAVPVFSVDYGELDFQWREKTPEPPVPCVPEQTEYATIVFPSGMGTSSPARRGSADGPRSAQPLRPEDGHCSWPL

The experiment addresses T1, PD-1/PD-L1 interaction (PE-labeled human PD-L1-Ig binding to Jurkat cell line over-expressing human PD-1) (Homo sapiens, UniProt Q15116).
T1 construct: expressed in transfected cells; host or cells: Jurkat
Put plainly: Jurkat-PD-1 Cell Binding High-Content Screening Assay (CBA). Particulars: Jurkat cell line over-expressing human PD-1; PE-labeled PD-L1-Ig 20 nM final; read-out: Jurkat hPD1-PDL1 IC50. Format: cell-based. An outline of the steps: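 First, compound is added to PD-1-expressing Jurkat cells in serum-containing DMEM and left 2 h at 37° C. Next, PE-conjugated PD-L1-Ig is introduced at 20 nM final concentration for 1 hour. Finally, cells are fixed in 4% paraformaldehyde with Hoechst 33342, washed and imaged.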
Turning to `Cc1cccc(C[C@@H]2NC(=O)[C@H](CC(=O)O)NC(=O)[C@H](Cc3ccc(OCC(=O)O)cc3)NC(=O)[C@H](CN)NC(=O)CSC[C@@H](C(=O)N[C@@H](CCCN)C(=O)N[C@@H](CO)C(=O)NCCCCCCCCCCCC(=O)O)NC(=O)[C@H](CCCN)NC(=O)[C@H](C(C)C)NC(=O)[C@H](CC3CCCCC3)NC(=O)[C@H](CCN)NC(=O)[C@@H](CC(C)C)NC(=O)[C@H](CCCN)NC(=O)[C@H](Cc3ccc(O)cc3)NC(=O)[C@H](Cc3ccc(-c4ccccc4)cc3)NC(=O)[C@H](C(C)C)NC2=O)c1` [Compound 3589] ({CH2CO}-[Dap]Y(Carboxymethyl)D[Phe(3-Me)]V[Bip]Y[Orn][dL][Dab][Cha]V[Orn]C[Orn]S[12Ado]-OH; thioether N-14), the IC50 (as a rule, the point on the concentration scale where inhibition reaches its midpoint) was found to be 27.8 nM.

Consider `CC(=O)NCCCC[C@@H]1NC(=O)[C@H](Cc2ccc(-c3ccccc3)cc2)NC(=O)[C@H](C(C)C)NC(=O)[C@H](Cc2cccc(C)c2)NC(=O)[C@H](CC(=O)O)NC(=O)[C@H](Cc2ccc(OCC(=O)O)cc2)NC(=O)[C@H](CN)NC(=O)CSC[C@@H](C(=O)N[C@@H](CCN)C(=O)N[C@@H](CO)C(=O)NCCCCCCCCCCCC(=O)O)NC(=O)[C@H](CCCN)NC(=O)[C@H](C(C)C)NC(=O)[C@H](CC2CCCCC2)NC(=O)[C@H](CCN)NC(=O)[C@@H](CC(C)C)NC(=O)[C@H](CCCN)NC1=O` [Compound 3590] ({CH2CO}-[Dap]Y(Carboxymethyl)D[Phe(3-Me)]V[Bip]K(Ac)[Orn][dL][Dab][Cha]V[Orn]C[Dab]S[12Ado]-OH; thioether N-14), for which the IC50 came to 6.5 nM.

In the case of `Cc1cccc(C[C@@H]2NC(=O)[C@H](CC(=O)O)NC(=O)[C@H](Cc3ccc(OCC(=O)O)cc3)NC(=O)[C@H](CCCCNC(=N)N)NC(=O)CSC[C@@H](C(=O)N[C@@H](CCCN)C(=O)N[C@@H](CO)C(=O)NCCCCCCCCCCCC(=O)O)NC(=O)[C@H](CO)NC(=O)[C@H](C(C)O)NC(=O)[C@H](CC3CCCCC3)NC(=O)[C@H](CCN)NC(=O)[C@@H](CC(C)C)NC(=O)[C@H](CCCN)NC(=O)[C@H](CCCNC(N)=O)NC(=O)[C@H](Cc3ccc(-c4ccccc4)cc3)NC(=O)[C@H](C(C)C)NC2=O)c1` (stereo partly drawn) [Compound 3591] ({CH2CO}-[hArg]Y(Carboxymethyl)D[Phe(3-Me)]V[Bip][Cit][Orn][dL][Dab][Cha][Thr(3ξ)]SC[Orn]S[12Ado]-OH; thioether N-14), the IC50 was determined as 23.9 nM.

With `CNC[C@@H]1NC(=O)CSC[C@@H](C(=O)N[C@@H](CCN)C(=O)NCCCCCCCCCCCC(=O)O)NC(=O)[C@H](CCCN)NC(=O)[C@H](C(C)C)NC(=O)[C@H](CC2CCCCC2)NC(=O)[C@H](CCN)NC(=O)[C@@H](CC(C)C)NC(=O)[C@H](CCCN)NC(=O)[C@H](Cc2ccc(O)cc2)NC(=O)[C@H](Cc2ccc(-c3ccccc3)cc2)NC(=O)[C@H](C(C)C)NC(=O)[C@H](Cc2cccc(C)c2)NC(=O)[C@H](CC(=O)O)NC(=O)[C@H](Cc2ccc(OCC(=O)O)cc2)NC1=O` [Compound 3592] ({CH2CO}-[Dap(Me)]Y(Carboxymethyl)D[Phe(3-Me)]V[Bip]Y[Orn][dL][Dab][Cha]V[Orn]C[Dab][12Ado]-OH; thioether N-14), the IC50 turned out to be 8.6 nM.

For the compound `Cc1cccc(C[C@@H]2NC(=O)[C@H](CC(=O)O)NC(=O)[C@H](Cc3ccc(OCC(=O)O)cc3)NC(=O)[C@H](CN)NC(=O)CSC[C@@H](C(=O)N[C@@H](CCN)C(=O)NCCCCCCCCCCC(=O)O)NC(=O)[C@H](C(C)O)NC(=O)[C@H](C(C)C)NC(=O)[C@H](CC3CCCCC3)NC(=O)[C@H](CCN)NC(=O)[C@@H](CC(C)C)NC(=O)[C@H](CCCN)NC(=O)[C@H](CCCNC(N)=O)NC(=O)[C@H](Cc3ccc(-c4ccccc4)cc3)NC(=O)[C@H](CCCNC(N)=O)NC2=O)c1` (stereo partly drawn) [Compound 3593] ({CH2CO}-[Dap]Y(Carboxymethyl)D[Phe(3-Me)][Cit][Bip][Cit][Orn][dL][Dab][Cha]V[Thr(3ξ)]C[Dab][Aun]-OH; thioether N-14), the IC50 was 363 nM.

Regarding `CNC[C@@H]1NC(=O)CSC[C@@H](C(=O)N[C@@H](CCN)C(=O)NCCCCCCCCCCC(=O)O)NC(=O)[C@H](C(C)O)NC(=O)[C@H](C(C)C)NC(=O)[C@H](CC2CCCCC2)NC(=O)[C@H](CCN)NC(=O)[C@@H](CC(C)C)NC(=O)[C@H](CCCN)NC(=O)[C@H](CCCCNC(C)=O)NC(=O)[C@H](Cc2ccc(-c3ccccc3)cc2)NC(=O)[C@H](CCCCNC(C)=O)NC(=O)[C@H](Cc2cccc(C)c2)NC(=O)[C@H](CC(=O)O)NC(=O)[C@H](Cc2ccc(OCC(=O)O)cc2)NC1=O` (stereo partly drawn) [Compound 3594] ({CH2CO}-[Dap(Me)]Y(Carboxymethyl)D[Phe(3-Me)]K(Ac)[Bip]K(Ac)[Orn][dL][Dab][Cha]V[Thr(3ξ)]C[Dab][Aun]-OH; thioether N-14), the IC50 came out at 16.2 nM.

As for `Cc1cccc(C[C@@H]2NC(=O)[C@H](CC(=O)O)NC(=O)[C@H](Cc3ccc(OCC(=O)O)cc3)NC(=O)[C@H](CN)NC(=O)CSC[C@@H](C(=O)N[C@@H](CCN)C(=O)NCCCCCCCCCCC(=O)O)NC(=O)[C@H]([C@H](C)O)NC(=O)[C@H](C(C)O)NC(=O)[C@H](CC3CCCCC3)NC(=O)[C@H](CCN)NC(=O)[C@@H](CC(C)C)NC(=O)[C@H](CCCN)NC(=O)[C@H](Cc3ccc(O)cc3)NC(=O)[C@H](Cc3ccc(-c4ccccc4)cc3)NC(=O)[C@H](Cc3ccc(OCC(=O)O)cc3)NC2=O)c1` (stereo partly drawn) [Compound 3595] ({CH2CO}-[Dap]Y(Carboxymethyl)D[Phe(3-Me)]Y(Carboxymethyl)[Bip]Y[Orn][dL][Dab][Cha][Thr(3ξ)][aThr]C[Dab][Aun]-OH; thioether N-14), the IC50 was determined as 151 nM.

In the case of `CNC[C@@H]1NC(=O)CSC[C@@H](C(=O)N[C@@H](CCN)C(=O)NCCCCCCCCCCC(=O)O)NC(=O)[C@H](CO)NC(=O)[C@H](C(C)O)NC(=O)[C@H](CC2CCCCC2)NC(=O)[C@H](CCN)NC(=O)[C@@H](CC(C)C)NC(=O)[C@H](CCCN)NC(=O)[C@H](Cc2ccc(O)cc2)NC(=O)[C@H](Cc2ccc(-c3ccccc3)cc2)NC(=O)[C@H](CCCCNC(=O)C(C)(C)C)NC(=O)[C@H](Cc2cccc(C)c2)NC(=O)[C@H](CC(=O)O)NC(=O)[C@H](Cc2ccc(OCC(=O)O)cc2)NC1=O` (stereo partly drawn) [Compound 3596] ({CH2CO}-[Dap(Me)]Y(Carboxymethyl)D[Phe(3-Me)]K(Piv)[Bip]Y[Orn][dL][Dab][Cha][Thr(3ξ)]SC[Dab][Aun]-OH; thioether N-14), the IC50 worked out at 162 nM.

For `CCCC[C@H]1C(=O)N[C@@H](Cc2ccc(OCC(=O)O)cc2)C(=O)N[C@@H](CC(=O)O)C(=O)N[C@@H](Cc2cccc(C)c2)C(=O)N[C@@H](Cc2ccc(OCC(=O)O)cc2)C(=O)N[C@@H](Cc2ccc(-c3ccccc3)cc2)C(=O)N[C@@H](Cc2ccc(OCC(=O)O)cc2)C(=O)N[C@@H](CCCN)C(=O)N[C@H](CC(C)C)C(=O)N[C@@H](CCN)C(=O)N[C@@H](CC2CCCCC2)C(=O)N[C@@H](C(C)C)C(=O)N[C@@H](CO)C(=O)N[C@H](C(=O)N[C@@H](CCN)C(=O)NCCCCCCCCCCC(=O)O)CSCC(=O)N1C` [Compound 3598] ({CH2CO}-[NMeNle]Y(Carboxymethyl)D[Phe(3-Me)]Y(Carboxymethyl)[Bip]Y(Carboxymethyl)[Orn][dL][Dab][Cha]VSC[Dab][Aun]-OH; thioether N-14), the IC50 came to 13.8 nM.

Regarding `Cc1cccc(C[C@@H]2NC(=O)[C@H](CC(=O)O)NC(=O)[C@H](Cc3ccc(OCC(=O)O)cc3)NC(=O)[C@H](CCN)NC(=O)CSC[C@@H](C(=O)N[C@@H](CCCCN)C(=O)NCCCCCCCCCCC(=O)O)NC(=O)[C@H](CCCCN)NC(=O)[C@H](C(C)O)NC(=O)[C@H](CC3CCCCC3)NC(=O)[C@H](CCN)NC(=O)[C@@H](CC(C)C)NC(=O)[C@H](CCCN)NC(=O)[C@H](Cc3ccc(O)cc3)NC(=O)[C@H](Cc3ccc(-c4ccccc4)cc3)NC(=O)[C@H](C(C)C)NC2=O)c1` (stereo partly drawn) [Compound 3599] ({CH2CO}-[Dab]Y(Carboxymethyl)D[Phe(3-Me)]V[Bip]Y[Orn][dL][Dab][Cha][Thr(3ξ)]KCK[Aun]-OH; thioether N-14), the IC50 was found to be 4.9 nM.

As for `Cc1cccc(C[C@@H]2NC(=O)[C@H](CC(=O)O)NC(=O)[C@H](Cc3ccc(OCC(=O)O)cc3)NC(=O)[C@H](Cc3ccc(C(N)=O)cc3)NC(=O)CSC[C@@H](C(=O)N[C@@H](CCCCN)C(=O)NCCCCCCCCCCC(=O)O)NC(=O)[C@H](CCCCN)NC(=O)[C@H](C(C)O)NC(=O)[C@H](CC3CCCCC3)NC(=O)[C@H](CCN)NC(=O)[C@@H](CC(C)C)NC(=O)[C@H](CCCN)NC(=O)[C@H](Cc3ccc(O)cc3)NC(=O)[C@H](Cc3ccc(-c4ccccc4)cc3)NC(=O)[C@H](C(C)C)NC2=O)c1` (stereo partly drawn) [Compound 3600] ({CH2CO}-[Phe(4-CONH2)]Y(Carboxymethyl)D[Phe(3-Me)]V[Bip]Y[Orn][dL][Dab][Cha][Thr(3ξ)]KCK[Aun]-OH; thioether N-14), the IC50 was determined as 40.1 nM.

Consider `CC(=O)Nc1ccc(C[C@@H]2NC(=O)[C@H](Cc3cccc(C)c3)NC(=O)[C@H](CC(=O)O)NC(=O)[C@H](Cc3ccc(OCC(=O)O)cc3)NC(=O)[C@H](CN)NC(=O)CSC[C@@H](C(=O)N[C@@H](CCN)C(=O)NCCCCCCCCCCC(=O)O)NC(=O)[C@H](C(C)O)NC(=O)[C@H](C(C)C)NC(=O)[C@H](CC3CCCCC3)NC(=O)[C@H](CCN)NC(=O)[C@@H](CC(C)C)NC(=O)[C@H](CCCN)NC(=O)[C@H](Cc3ccc(NC(C)=O)cc3)NC(=O)[C@H](Cc3ccc(-c4ccccc4)cc3)NC2=O)cc1` (stereo partly drawn) [Compound 3601] ({CH2CO}-[Dap]Y(Carboxymethyl)D[Phe(3-Me)][Phe(4-NH2)](Ac)[Bip][Phe(4-NH2)](Ac)[Orn][dL][Dab][Cha]V[Thr(3ξ)]C[Dab][Aun]-OH; thioether N-14), for which the IC50 was 38 nM.
